From patent US12048691B2 (SPERO THERAPEUTICS, INC., priority 2020, dated 2024)
In brackets after ≈: the same amount, converted by molar mass. Structures can show the parent of a compound that is named as a salt. Where two headings read alike, the source gives them in different places. Marks after values point to notes of the source that are not given here.

Columns and labels:
[1] = system: bacteremia secondary to cUTI/AP; assay: Efficacy in patients with cUTI or acute pyelonephritis and associated bacteremia; assay type: in vivo, human
From the text: The objective of this analysis was to evaluate the efficacy of TBP-PI-HBr in the subset of patients with associated bacteremia from a study of patients with either cUTI or acute pyelonephritis.

[2] = system: E. coli; assay: Broth microdilution MIC against characterized subsets of UTI E. coli (2018-2020); assay type: cell-based
From the text: Isolates were collected from medical centers in all 9 US Census Regions and tested by broth microdilution. MIC interpretation was based on CLSI. Isolates that met MIC criteria were subjected to genome sequencing, followed by screening of extended-spectrum b-lactamase (ESBL) genes and epidemiology typing (MLST).

[3] = system: Enterobacterales overproducing AmpC; assay: Broth microdilution susceptibility of isolates overexpressing AmpC; assay type: cell-based
Protocol: (§1) Frozen-form broth microdilution panels were manufactured by JMI Laboratories and contained cation-adjusted Mueller-Hinton broth. Quality assurance was performed by sterility checks, colony counts, and testing CLSI recommended quality control reference strains.

[4] = system: Vancomycin-susceptible Enterococcus faecalis; assay: Broth microdilution against Gram-positive clinical isolates; assay type: cell-based; settings: E. faecalis
Protocol: The purpose of this study was to investigate the in vitro activity of tebipenem and comparator agents, including ertapenem and meropenem, against a recent collection of Gram-positive isolates associated with clinical infections. The susceptibility of 580 Gram-positive organisms were tested, including: Methicillin-susceptible Staphylococcus aureus (MSSA, 489 isolates), Methicillin-susceptible Staphylococcus epidermidis (MSSE, 31), other methicillin-susceptible coagulase-negative staphylococci (MSCONS, 29), and Vancomycin-susceptible Enterococcus faecalis (31). Bacterial species were identified by JMI Laboratories using standard microbiology methods and matrix-assisted laser desorption ionization-time of flight mass spectrometry (Bruker Daltonics, Bremen, Germany). The isolates were collected in 2018 and 2019 as part of the SENTRY surveillance program and selected to be representative of these species with 45.0% from the United States, 44.3% from Europe, 5.3% from the Asia-Pacific region, and 5.3% from Latin America. Isolates are primarily from pneumonia in hospitalized patients (498 isolates; 85.9%), urinary tract infections (42 isolates; 7.2%), and bloodstream infections (38 isolates; 6.6%). Isolates were tested in a central laboratory (JMI Laboratories) for antimicrobial susceptibility using the CLSI M07 (2018) reference broth microdilution method. JMI Laboratories produced frozen-form 96-well panels and used cation-adjusted Mueller-Hinton broth (CA-MHB) as the testing medium. All categorical interpretations used CLSI M100 (2021) and EUCAST v10.0 (2021) breakpoint criteria, where published. Quality control organisms include Escherichia coli ATCC 25922, Escherichia coli ATCC 35218, Enterococcus faecalis ATCC 29212, Pseudomonas aeruginosa ATCC 27853, and Staphylococcus aureus ATCC 29213 were tested concurrently with clinical isolates.

[5] = system: E. coli; assay: Susceptibility of E. coli from urinary tract infections, 18 EU countries 2020 (STEWARD); assay type: cell-based
Protocol: The study assessed the prevalence of resistance and evaluated the activity of oral tebipenem (TBP) and comparators against EC from urinary tract infections.
Results were interpreted using EUCAST criteria. […] ESBL phenotypes were determined by CLSI criteria and sequenced to identify CTX-M-15 genotype and clonal complex ST131.

[6] = system: P. aeruginosa isolates that overproduced AmpC; assay: Broth microdilution susceptibility of isolates overexpressing AmpC; assay type: cell-based; settings: P. aeruginosa (32)
Protocol: as §1

[7] = system: P. mirabilis; assay: Broth microdilution against US UTI pathogens 2019-2020; assay type: cell-based; settings: for % susceptible; CLSI: cefuroxime: oral breakpoint
Protocol: (§2) This study assessed the in vitro activity of tebipenem and comparator agents against Enterobacterales (ENT) responsible for UTIs in the US during 2019-2020. A total of 3,576 ENT recovered from urine samples during the 2019-2020 STEWARD Surveillance Program were included in the study. Isolates were collected from medical centers in all 9 US Census Regions and were centrally tested for susceptibility by reference broth microdilution method. MIC interpretation was performed based on CLSI criteria.

[8] = system: K. pneumoniae; assay: as above; assay type: cell-based; settings: K. pneumoniae (511)
Protocol: as §2

[9] = system: E. coli; assay: as above; assay type: cell-based; settings: E. coli (2,339)
Protocol: as §2

[10] = system: Enterobacterales (ENT); assay: as above; assay type: cell-based; settings: All (3,567)
Protocol: as §2

C[C@@H](O)[C@H]1C(=O)N2C(C(=O)OCOC(=O)C(C)(C)C)=C(SC3CN(C4=NCCS4)C3)[C@H](C)[C@H]12 [Tebipenem pivoxil HBr, tebipenem pivoxil hydrobromide]
Clinical cure rate ([1]; EOT): 100%
Clinical cure rate ([1]; TOC): 97.9%
Overall response rate ([1]; end-of-treatment (EOT)): 93.6%
Clinical cure rate ([1]; late-follow-up (LFU) visit): approximately 89%
Overall response rate ([1]; test-of-cure (TOC)): 72.3%

C[C@@H](O)[C@H]1C(=O)N2C(C(=O)OCOC(=O)C(C)(C)C)=C(SC3CN(C4=NCCS4)C3)[C@H](C)[C@H]12 [Tebipenem pivoxil]
MIC50 [2]: 0.03/- (-) μg/mL

CN(C)[C@@H]1C(O)=C(C(N)=O)C(=O)[C@@]2(O)C(O)=C3C(=O)c4c(O)cccc4[C@@](C)(O)[C@H]3C[C@@H]12 [Tetracycline]
CLSI %1 ([3]; Enterobacterales (36)): 5.6%
CLSI % R ([3]; Enterobacterales (36)): 44.4%
CLSI % S ([3]; Enterobacterales (36)): 50.0%
MIC50 ([3]; Enterobacterales (36), read-out: MIC50): 4 µg/mL (≈ 9 µM)
MIC90 ([3]; Enterobacterales (36), read-out: MIC90): > 16 µg/mL

CN(C)c1cc(NC(=O)CNC(C)(C)C)c(O)c2c1C[C@H]1C[C@H]3[C@H](N(C)C)C(O)=C(C(N)=O)C(=O)[C@@]3(O)C(O)=C1C2=O [Tigecycline]
MIC50 [3]: 0.25 µg/mL (≈ 0.427 µM)
MIC90 [3]: 1 µg/mL (≈ 1.71 µM)
CLSI %1 ([3]; Enterobacterales (36)): 5.6%
CLSI % R ([3]; Enterobacterales (36)): 0.0%
CLSI % S ([3]; Enterobacterales (36)): 94.4^d %
MIC range ([3]; Enterobacterales (36)): ≤0.06 to 4 μ/ml

CC1(C)S[C@@H]2[C@H](NC(=O)[C@H](N)c3ccccc3)C(=O)N2[C@H]1C(=O)O [ampicillin]
Susceptibility rate [4]: 100.0%

CC1(C)S[C@@H]2[C@H](/N=C/N3CCCCCC3)C(=O)N2[C@H]1C(=O)O [mecillinam]
MIC90 ([5]; Escherichia coli, all E. coli (764) from UTIs): > 8 µg/mL
Susceptibility rate ([5]; all E. coli, EUCAST criteria): 88.0%

Piperacillin-tazobactam
CLSI %1 ([3]; Enterobacterales (36)): 19.4%
CLSI % R ([3]; Enterobacterales (36)): 33.3%
CLSI % S ([3]; Enterobacterales (36)): 47.2%
MIC50 ([3]; Enterobacterales (36)): 32 μ/ml
MIC90 ([3]; Enterobacterales (36)): >128 μ/ml
CLSI %1 [6]: 40.6%
CLSI % R [6]: 53.1%
CLSI % S [6]: 6.2%
MIC50 [6]: 128 μ/ml
MIC90 [6]: >128 μ/ml

Tebipenem pivoxil
MIC50 [7]: 0.12 mg/L
MIC90 [7]: 0.12 mg/L
concentration inhibiting all PM [7]: 0.25 mg/L

amoxicillin-clavulanate (2:1) [A/C]
MIC50 [8]: 2000 µg/mL
MIC90 [8]: 16000 µg/mL
% susceptible; CLSI ([8]; cefuroxime: oral breakpoint): (86.7) %
MIC50 [9]: 4000 µg/mL
MIC90 [9]: 16000 µg/mL
% susceptible; CLSI ([9]; cefuroxime: oral breakpoint): (80.8) %
MIC50 [10]: 4000 µg/mL
MIC90 [10]: 32000 µg/mL
% susceptible; CLSI ([10]; cefuroxime: oral breakpoint): (76.1) %
MIC50 ([7]; P. mirabilis (235)): 1/1 mg/mL
MIC90 ([7]; P. mirabilis (235)): 1/1 mg/mL
% susceptible; CLSI ([7]; P. mirabilis (235)): (96.6) %
% susceptible; CLSI ([7]; P. mirabilis (235), listed as amoxicillin/clavulanate): 96.6%
% susceptible by CLSI M100 criteria ([2]; CTX-M a): 57.6%
MIC50 ([2]; CTX-M a): 8 µg/mL
MIC90 ([2]; CTX-M a): 16 µg/mL
% susceptible by CLSI M100 criteria ([2]; ESBL (360)): 47.2%
MIC50 ([2]; ESBL (360)): 16 µg/mL
MIC90 ([2]; ESBL (360)): 32 µg/mL
% susceptible by CLSI M100 criteria ([2]; Non-ESBL (2035)): 86.6%
MIC50 ([2]; Non-ESBL (2035)): 4 µg/mL
MIC90 ([2]; Non-ESBL (2035)): 16 µg/mL
CLSI %1 ([3]; Enterobacterales (36)): 11.1%
CLSI % R ([3]; Enterobacterales (36)): 86.1%
CLSI % S ([3]; Enterobacterales (36)): 2.8%
MIC50 ([3]; Enterobacterales (36)): >32 μ/ml
MIC90 ([3]; Enterobacterales (36)): >32 μ/ml
